Our source for the IC50 values is patent US8759342B2, “Benzo[1,4]oxazin-3-one, benzo[1,4]thiazin-3-one and quinolin-2-one urotensin II receptor antagonists” (Janssen Pharmaceutica NV, priority 2006, dated 2014).

The structures appear in SMILES notation.

This experiment has as its target T1, rat GPR14 (U-II receptor) (Rattus norvegicus, UniProt P49684).
T1 construct: expressed in transfected cells
T1 sequence (P49684 1-386): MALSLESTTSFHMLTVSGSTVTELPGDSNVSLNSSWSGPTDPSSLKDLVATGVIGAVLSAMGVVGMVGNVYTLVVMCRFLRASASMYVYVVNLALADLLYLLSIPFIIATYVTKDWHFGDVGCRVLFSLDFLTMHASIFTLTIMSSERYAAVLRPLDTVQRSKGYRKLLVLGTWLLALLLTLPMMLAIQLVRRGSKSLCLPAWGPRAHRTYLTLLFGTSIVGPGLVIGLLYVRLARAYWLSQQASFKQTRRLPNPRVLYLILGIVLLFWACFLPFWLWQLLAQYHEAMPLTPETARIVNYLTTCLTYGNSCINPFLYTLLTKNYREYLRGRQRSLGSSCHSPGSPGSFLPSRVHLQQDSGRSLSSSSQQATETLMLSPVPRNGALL
In words: Calcium flux assay (FLIPR). The class given is cell-based. To be noted: Inhibition of acetyl-cyclic[Cys-Phe-Trp-Lys-(2-Nal)-Cys]-NH2 (1 nM) induced Ca2+ mobilization (FLIPR) in CHO cells transfected with rat UII receptor; 5 min incubation. An excerpt:
To derive these cells, the complete coding sequence of rat […] was amplified by nested PCR from rat heart marathon-Ready cDNA. […] The PCR products were cloned into pcDNA3 (Invitrogen) digested with EcoR I and Xba I. Clones containing rat U-II receptor were verified by complete sequencing of the U-II receptor insert to ensure a lack of PCR-introduced errors. The constructed vector was transfected into CHO cells by using lipofectamine (GIBCO BRL). CHO cells with high expression of rat U-II receptor were selected and established as stable cell lines by using G418. CHO cells were seeded at 25,000 cells per well into 96-well, black-wall, clear-bottom microtiter plates 24 hrs before assay. Cells in culture media (DMEM/F12 containing 15 mM HEPES, L-glutamine, pyridoxine hydrochloride; 10% fetal bovine serum; 1 mg/mL G418 sulfate; antibiotic-antimycotic; pH 7.4) were loaded with proprietary dye, from the FLIPR Calcium Assay Kit (Molecular Devices), prepared in assay buffer (Hanks Balanced Salts Solution, 20 mM HEPES, 0.1% BSA, 2.5 mM probenecid, pH 7.4), and incubated for 1 hr at 37° C. Calcium mobilization determinations were performed at room temperature (23° C.).
As for `O=C(NCCCCc1ccccc1)c1ccccc1C1CCN(CCN2C(=O)COc3ccccc32)CC1` [Cpd 4], the IC50 (as a rule, the point on the concentration scale where inhibition reaches its midpoint) stood at 3.1 µM. As for `O=C1COc2ccccc2N1CCN1CCC(c2ccccc2F)CC1` [Cpd 89, 4-{2-[4-(2-fluoro-phenyl)-piperidin-1-yl]-ethyl}-4H-benzo[1,4]oxazin-3-one], the IC50 is 23 µM. Take `CC1C=C(c2ccc(Cl)cc2C(=O)NCCCCCNC(=O)OC(C)(C)C)CC(C)N1CCN1C(=O)COc2ccccc21` (stereo not shown) [Cpd 102, [5-(5-chloro-2-{2,6-dimethyl-1-[2-(3-oxo-2,3-dihydro-benzo[1,4]oxazin-4-yl)-ethyl]-1,2,3,6-tetrahydro-pyridin-4-yl}-benzoylamino)pentyl]-carbamic acid tert-butyl ester]: the IC50 was found to be 7.6 µM. In the case of `COCCNC(=O)c1ccccc1C1CCN(CCN2C(=O)COc3ccccc32)CC1` [Cpd 36, N-(2-methoxy-ethyl)-2-{1-[2-(3-oxo-2,3-dihydro-benzo[1,4]oxazin-4-yl)-ethyl]-piperidin-4-yl}-benzamide], the 50% inhibitory concentration (IC50) is 25 µM. Then `CN(Cc1ccccc1)C(=O)c1ccccc1C1CCN(CCN2C(=O)COc3ccccc32)CC1` [Cpd 5, N-benzyl-N-methyl-2-{1-[2-(3-oxo-2,3-dihydro-benzo[1,4]oxazin-4-yl)-ethyl]-piperidin-4-yl}-benzamide], with 11 µM; and `O=C(NCCN1CCCC1)c1ccccc1C1CCN(CCN2C(=O)COc3ccccc32)CC1` [Cpd 30, 2-{1-[2-(3-oxo-2,3-dihydro-benzo[1,4]oxazin-4-yl)-ethyl]-piperidin-4-yl}-N-(2-pyrrolidin-1-yl-ethyl)-benzamide], with 32 µM. On to `O=C(NCc1cccs1)c1ccccc1C1CCN(CCN2C(=O)COc3ccccc32)CC1` [Cpd 46, 2-{1-[2-(3-oxo-2,3-dihydro-benzo[1,4]oxazin-4-yl)-ethyl]-piperidin-4-yl}-N-thiophen-2-ylmethyl-benzamide], for which the IC50 was 6 µM.

For `CC(Cc1ccc(Cl)cc1)NC(=O)c1ccccc1C1CCN(CCN2C(=O)COc3ccccc32)CC1` (stereo not shown) [Cpd 12, N-[2-(4-chloro-phenyl)-1-methyl-ethyl]-2-{1-[2-(3-oxo-2,3-dihydro-benzo[1,4]oxazin-4-yl)-ethyl]-piperidin-4-yl}-benzamide], the IC50 stood at 10 µM. Take `O=C(NCCN1CCCCC1)c1cc(Cl)ccc1C1CCN(CCN2C(=O)COc3ccccc32)CC1` [Cpd 71, 5-chloro-2-{1-[2-(3-oxo-2,3-dihydro-benzo[1,4]oxazin-4-yl)-ethyl]-piperidin-4-yl}-N-(2-piperidin-1-yl-ethyl)-benzamide]: the IC50 was 0.27 µM. In the case of `O=C1COc2ccccc2N1CCN1CCC(C(=O)NCCc2ccccc2)(c2ccccc2)CC1` [Cpd 105, 1-[2-(3-oxo-2,3-dihydro-benzo[1,4]oxazin-4-yl)-ethyl]-4-phenyl-piperidine-4-carboxylic acid phenethyl-amide], the IC50 is 7 µM.

Consider `O=C(NCCN1CCNCC1)c1cc(Cl)ccc1C1CCN(CCN2C(=O)COc3ccccc32)CC1` [Cpd 73, 5-chloro-2-{1-[2-(3-oxo-2,3-dihydro-benzo[1,4]oxazin-4-yl)-ethyl]-piperidin-4-yl}-N-(2-piperazin-1-yl-ethyl)-benzamide], for which the IC50 turned out to be 1.9 µM. As for `O=C(NCCCn1ccnc1)c1ccccc1C1CCN(CCN2C(=O)COc3ccccc32)CC1` [Cpd 48, N-(3-imidazol-1-yl-propyl)-2-{1-[2-(3-oxo-2,3-dihydro-benzo[1,4]oxazin-4-yl)-ethyl]-piperidin-4-yl}-benzamide], the IC50 was 43 µM.

In the case of `O=C(NCc1ccccc1)c1ccccc1C1CCN(CCN2C(=O)COc3ccccc32)CC1` [Cpd 2, N-benzyl-2-{1-[2-(3-oxo-2,3-dihydro-benzo[1,4]oxazin-4-yl)-ethyl]-piperidin-4-yl}-benzamide], the concentration for half-maximal inhibition (IC50) is 7.9 µM.

On to `O=C1COc2ccccc2N1CCN1CCC(c2cccc(Cl)c2)CC1` [Cpd 92, 4-{2-[4-(3-chloro-phenyl)-piperidin-1-yl]-ethyl}-4H-benzo[1,4]oxazin-3-one], for which the IC50 is 20 µM. In the case of `COc1cc(CCNC(=O)c2ccccc2C2CCN(CCN3C(=O)COc4ccccc43)CC2)cc(OC)c1` [Cpd 17, N-[2-(3,5-dimethoxy-phenyl)-ethyl]-2-{1-[2-(3-oxo-2,3-dihydro-benzo[1,4]oxazin-4-yl)-ethyl]-piperidin-4-yl}-benzamide], the 50% inhibitory concentration (IC50) stood at 7 µM. Then `CC(CNC(=O)c1ccccc1C1CCN(CCN2C(=O)COc3ccccc32)CC1)c1ccccc1` (stereo not shown) [Cpd 28, 2-{1-[2-(3-oxo-2,3-dihydro-benzo[1,4]oxazin-4-yl)-ethyl]-piperidin-4-yl}-N-(2-phenyl-propyl)-benzamide], with 9 µM; and `CN(CCc1ccccc1)C(=O)c1ccccc1C1CCN(CCN2C(=O)COc3ccccc32)CC1` [Cpd 18, N-methyl-2-{1-[2-(3-oxo-2,3-dihydro-benzo[1,4]oxazin-4-yl)-ethyl]-piperidin-4-yl}-N-phenethyl-benzamide], with 15 µM. Take `O=C1COc2ccccc2N1CCN1CCC(c2ccccc2)CC1` [Cpd 86, 4-[2-(4-phenyl-piperidin-1-yl)-ethyl]-4H-benzo[1,4]oxazin-3-one]: the IC50 is 24 µM. For the molecule `O=C(NCC1CC1)c1ccccc1C1CCN(CCN2C(=O)COc3ccccc32)CC1` [Cpd 24, N-cyclopropylmethyl-2-{1-[2-(3-oxo-2,3-dihydro-benzo[1,4]oxazin-4-yl)-ethyl]-piperidin-4-yl}-benzamide], the half-inhibitory concentration (IC50) came out at 12 µM. Turning to `CCCNC(=O)c1ccccc1C1CCN(CCN2C(=O)COc3ccccc32)CC1` [Cpd 29, 2-{1-[2-(3-oxo-2,3-dihydro-benzo[1,4]oxazin-4-yl)-ethyl]-piperidin-4-yl}-N-propyl-benzamide], the IC50 was determined as 20 µM.

On to `O=C(NCCCN1CCCC1=O)c1ccccc1C1CCN(CCN2C(=O)COc3ccccc32)CC1` [Cpd 51, 2-{1-[2-(3-oxo-2,3-dihydro-benzo[1,4]oxazin-4-yl)-ethyl]-piperidin-4-yl}-N-[3-(2-oxo-pyrrolidin-1-yl)-propyl]-benzamide], for which the IC50 stood at 22 µM. With `O=C(NCCc1c[nH]c2ccccc12)c1cc(Cl)ccc1C1CCN(CCN2C(=O)COc3ccccc32)CC1` [Cpd 62, 5-chloro-N-[2-(1H-indol-3-yl)-ethyl]-2-{1-[2-(3-oxo-2,3-dihydro-benzo[1,4]oxazin-4-yl)-ethyl]-piperidin-4-yl}-benzamide], the IC50 amounted to 0.9 µM. For the molecule `O=C(NCCNC(=O)c1ccccc1C1CCN(CCN2C(=O)COc3ccccc32)CC1)Nc1ccc2ccccc2c1` [Cpd 54, N-[2-(3-naphthalen-2-yl-ureido)-ethyl]-2-{1-[2-(3-oxo-2,3-dihydro-benzo[1,4]oxazin-4-yl)-ethyl]-piperidin-4-yl}-benzamide], the IC50 amounted to 7 µM. For `O=C(NCc1cccnc1)c1ccccc1C1CCN(CCN2C(=O)COc3ccccc32)CC1` [Cpd 43, 2-{1-[2-(3-oxo-2,3-dihydro-benzo[1,4]oxazin-4-yl)-ethyl]-piperidin-4-yl}-N-pyridin-3-ylmethyl-benzamide], the IC50 worked out at 18 µM. In the case of `O=C(NCC1CCN(C(=O)c2ccccc2)CC1)c1cc(Cl)ccc1C1CCN(CCN2C(=O)COc3ccccc32)CC1` [Cpd 64, N-(1-benzoyl-piperidin-4-ylmethyl)-5-chloro-2-{1-[2-(3-oxo-2,3-dihydro-benzo[1,4]oxazin-4-yl)-ethyl]-piperidin-4-yl}-benzamide], the IC50 stood at 0.52 µM.
